Assays:
Assay in all cases: relative viability (nuclei count vs DMSO), 5 days (fraction); higher = more cells survive
Neratinib + Phenformin = compound: CCOc1cc2ncc(C#N)c(Nc3ccc(OCc4ccccn4)c(Cl)c3)c2cc1NC(=O)/C=C/CN(C)C [Neratinib] + N=C(N)NC(=N)NCCc1ccccc1 [Phenformin] (partner 250 µM)
Procedure, shortened: (§1)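 Medians of duplicate plates are given as relative viability. That measure is the nuclei count in treated wells divided by the count in vehicle wells. Counts were taken on 4× images of lung cancer cell lines in 1536-well plates, 5 days after pin-tool dosing the day after seeding with one drug alone or a fixed anchor-drug dose plus five library-drug doses (not always all listed) in √10 steps.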

Neratinib + Lapatinib = compound: CCOc1cc2ncc(C#N)c(Nc3ccc(OCc4ccccn4)c(Cl)c3)c2cc1NC(=O)/C=C/CN(C)C [Neratinib] + CS(=O)(=O)CCNCc1ccc(-c2ccc3ncnc(Nc4ccc(OCc5cccc(F)c5)c(Cl)c4)c3c2)o1 [Lapatinib] (partner 2 µM)
Procedure, shortened: as §1

Neratinib + Olaparib = compound: CCOc1cc2ncc(C#N)c(Nc3ccc(OCc4ccccn4)c(Cl)c3)c2cc1NC(=O)/C=C/CN(C)C [Neratinib] + O=C(c1cc(Cc2n[nH]c(=O)c3ccccc23)ccc1F)N1CCN(C(=O)C2CC2)CC1 [Olaparib] (partner 8 µM)
Procedure, shortened: as §1

Neratinib + Trametinib = compound: CCOc1cc2ncc(C#N)c(Nc3ccc(OCc4ccccn4)c(Cl)c3)c2cc1NC(=O)/C=C/CN(C)C [Neratinib] + CC(=O)Nc1cccc(-n2c(=O)n(C3CC3)c(=O)c3c(Nc4ccc(I)cc4F)n(C)c(=O)c(C)c32)c1 [Trametinib] (partner 0.02 µM)
Procedure, shortened: as §1

| Cell Line | relative viability (Neratinib + Phenformin; first compound 0.03162 µM) | relative viability (Neratinib + Phenformin; first compound 0.1 µM) | relative viability (Neratinib + Phenformin; first compound 0.3162 µM) | relative viability (Neratinib + Phenformin; first compound 1 µM) | relative viability (Neratinib + Lapatinib; first compound 0.01 µM) | relative viability (Neratinib + Lapatinib; first compound 0.03162 µM) | relative viability (Neratinib + Lapatinib; first compound 0.1 µM) | relative viability (Neratinib + Lapatinib; first compound 0.3162 µM) | relative viability (Neratinib + Lapatinib; first compound 1 µM) | relative viability (Neratinib + Olaparib; first compound 0.01 µM) | relative viability (Neratinib + Olaparib; first compound 0.03162 µM) | relative viability (Neratinib + Olaparib; first compound 0.1 µM) | relative viability (Neratinib + Olaparib; first compound 0.3162 µM) | relative viability (Neratinib + Olaparib; first compound 1 µM) | relative viability (Neratinib + Trametinib; first compound 0.01 µM) | relative viability (Neratinib + Trametinib; first compound 0.03162 µM) | relative viability (Neratinib + Trametinib; first compound 0.1 µM) | relative viability (Neratinib + Trametinib; first compound 0.3162 µM) | relative viability (Neratinib + Trametinib; first compound 1 µM) | relative viability (Neratinib + Phenformin; first compound 0.01 µM) |
| --- | --- | --- | --- | --- | --- | --- | --- | --- | --- | --- | --- | --- | --- | --- | --- | --- | --- | --- | --- | --- |
| EPLC-272H | 0.309 | 0.317 | 0.235 | 0.157 | 0.889 | 0.849 | 0.829 | 0.899 | 0.536 | 0.645 | 0.643 | 0.558 | 0.512 | 0.253 | 0.278 | 0.321 | 0.253 | 0.248 | 0.22 | – |
| NCI-H3122 | 0.407 | 0.317 | 0.35 | 0.187 | 1.05 | 1.05 | 0.884 | 1.03 | 0.601 | 0.609 | 0.699 | 0.571 | 0.617 | 0.587 | 0.29 | 0.214 | 0.2 | 0.227 | 0.175 | 0.366 |
| HCC-15 | 0.576 | 0.456 | 0.368 | 0.349 | 0.947 | 1.01 | 0.715 | 0.756 | 0.725 | 0.697 | 0.819 | 0.673 | 0.667 | 0.659 | 0.329 | 0.402 | 0.362 | 0.349 | 0.325 | 0.537 |
| SW 1573 | 0.466 | 0.384 | 0.311 | 0.185 | 1.27 | 1.13 | 1.24 | 1.15 | 1.16 | 0.634 | 0.444 | 0.374 | 0.391 | 0.287 | 0.554 | 0.57 | 0.497 | 0.593 | 0.276 | 0.431 |
| NCI-H1944 | 0.202 | 0.192 | 0.176 | 0.174 | 1.17 | 0.845 | 0.732 | 0.836 | 0.705 | 0.45 | 0.406 | 0.229 | 0.352 | 0.319 | 0.434 | 0.396 | 0.364 | 0.311 | 0.286 | 0.237 |
| HARA | 0.578 | 0.385 | 0.318 | 0.215 | 0.994 | 0.73 | 0.339 | 0.569 | 0.712 | 0.811 | – | 0.778 | – | 0.48 | 0.545 | 0.786 | 0.516 | – | 0.303 | 0.387 |
